The values below come from US20080008716A1, “Combined Pharmaceutical Composition Comprising an Anti-4-1BB Monoclonal Antibody and Chemotherapeutic Anti-Cancer Agent for Preventing and Treating Cancer Disease” (ULSAN INDUSTRIAL EDUCATION FOUNDATION, priority 2006, published 2008).

A value given as a limit tells only on which side of the number the result lay.

Assay [1] concerns B16F10 melanoma cell. The assay can be described thus: Anticancer effect of anti-4-1BB antibody combined with other chemotherapeutic anti-cancer agents; tumor size and survival. The note with it: for growth rate of cancer tissue / survival rate of mice / anticancer effect / activity: given simultaneously with B16F10, FIG. 3; for growth rate of cancer tissue: chemotherapeutic once (Cis 50 or 200 μg, 5-FU 800 or 10,000 μg, irinotecan 2 mg, paclitaxel 200 or 500 μg i.p.; Doxo 200 or 400 μg i.v.), antibody 100 μg, vs rat IgG control; for survival rate of mice / anticancer effect / activity: same doses as E16.
Experimental: 4×10^5 cells of B16F10 melanoma cell were injected to the back of C57BL/6 mice to occur tumor in a similar method in
At the same time, 100 μg of anti-4-1BB monoclonal antibody and/or 50 or 200 μg of cisplatin, 800 or 10,000 μg of 5-fluorouracil (5-FU), 2 mg of irinotecan and 200 or 500 μg of paclitaxel (Taxel) were intraperitoneally injected into the mice once respectively and the anti-4-1BB monoclonal antibody was further injected into the peritoneal cavity at 6 times per every 5 days. 100 μg of anti-4-1BB monoclonal antibody and/or 200 or 400 μg of Doxorubicin (Doxo) were injected into the vein and an anti-4-1BB monoclonal antibody was injected into the peritoneal cavity at 6 times per every 5 days. The size of tumor and the survival rates of the mice were analyzed during the test period (See FIG. 3).

The subject of the next assay is IFN-γ. Put plainly: IFN-γ expression of CD4 and CD8 T cells of draining lymph node (intracellular staining, FACScan). The note with it: 17th day after treating, FIG. 5a.
In assay [2] the test system is draining lymph node cell (CD4 and CD8 T cells). Put plainly: Lymphocyte repopulation: cell number, CD4 and CD8 T cells in draining lymph node of tumor-bearing mice. The format is in vivo, C57BL/6 mice. The procedure:
The ratio of immune cell in each sample was analyzed with FACScan (BD Bioscience, USA), and the number of infiltrated CD4+ CD8+ T cells in tumor tissue was calculated by following Math FIG. 1
Accordingly, it was anticipated that the sustainable treatment effect of cancer by the combined treatment with CTX and anti-4-1BB antibody would be involved in the repopulation of T cell showing anticancer activity.

Assay [3] deals with B16F10 melanoma cell.
Experimental: (§1) C57BL/6 male mice (Harlan Laboratories, Indianapolis, Ind.) were used as an experiment animal. The mice had been bred allowing freely accessible to water and feed and maintaining the temperature to 21±2° C. in 12 hours of light/dark cycle before use in test. B16F10(ATCC CRL-6475, USA), a melanoma cell line of mouse, was cultured in DMEM medium (Dulbeco's modified eagle's medium, GIBCO BRL, USA) containing 10% FBS (Fetal Bovine Serum; Gibco BRL, NY), 2 mM L-glutamine, 100 U/l penicillin (Invitrogen, USA) and 100 μg/ml streptomycin (Invitrogen, USA).
(§2) 4×10^5 cells of B16F10 melanoma cell were subcutaneously injected to the back of mice to occur tumor. At the same time, 100 μg of anti-4-1BB monoclonal antibody and 3 mg of CTX were intraperitoneally injected into the mice and the antibody was further injected thereto at the interval of five days. […] The size and survival rate of the mice were periodically determined.
At the same time, 100 μg of anti-4-1BB monoclonal antibody and 3 mg of CTX were intraperitoneally injected to the mice once and anti-4-1BB monoclonal antibody was injected into the peritoneal cavity at 6 times per every 5 days. The tumor size and the survival rates of mice were analyzed during the test period (See FIG. 1)
In assay [4] the test system is B16F10 melanoma cell. The source holds these as a separate data set.
Experimental: as §1, §2
3 mg of CTX were injected into the peritoneal cavity of the mice at 5th days and 10th days after injecting cancer cells, anti 4-1BB antibody was injected into the peritoneal cavity at 6 times per every 5 days from 5th days or 10th days after injecting cancer cells.

Experimental for IFN-γ: At 1st, 2nd, 4th, 8th, 12th, 16th, 20th, 24th days after the injection, the closest draining lymph node (inguinal lymph node) to tumor tissue in each group was isolated from the mice to determine the expression of IFN-γ (Kim Y H et al., Cell. Immunol., 238(2), pp 76˜86, 2005). To stain the IFN-γ cytokine in cell, lymph-node cell suspension was prepared from each group and the separated cells were cultured in culture medium containing Brefeldin A (BD Bioscience, USA) for 6 hours after treating with 50 ng/ml of PMA and 500 mg/ml of Ionomycin (Sigma, USA). […] The cells was then stained with anti-IFN-γ-PE (eBioscience, USA) using by Cytofix/cytoperm (BD Pharmingen, USA) with the manual of manufacturing company and analyzed with FACScan (BD Bioscience, USA).
3 mg of CTX and/or 100 μg of anti-4-1BB antibody were treated to the tumor-injected mice once and the cell was separated from the experimental group at 17th day when the cell started to launch the repopulation after treating with CTX and at 22nd day when the repopulation of the cell in lymph node was enough and the expression of IFN-γ was analyzed with FACScan (BD Bioscience, USA) with the method disclosed in Example 3.

In the case of `O=c1[nH]cc(F)c(=O)[nH]1` [5-FU, 5-fluorouracil], in the assay on B16F10 melanoma cell [1], the “growth rate of cancer tissue” value is given as “decreased in a dose dependent manner” and the “survival rate of mice” value was “increased”.

As to `COc1cccc2c1C(=O)c1c(O)c3c(c(O)c1C2=O)C[C@@](O)(C(=O)CO)C[C@@H]3O[C@H]1C[C@H](N)[C@H](O)[C@H](C)O1` [Doxorubicin], in the assay on B16F10 melanoma cell [1], the “growth rate of cancer tissue” value is reported as “had been decreased”, the “anticancer effect / activity” value is on record as “strong anticancer effect in a dose dependent manner” and the “survival rate of mice” value was “remarkably increased”.

On to `CC(=O)O[C@H]1C(=O)[C@@]2(C)[C@H]([C@H](OC(=O)c3ccccc3)[C@]3(O)C[C@H](OC(=O)[C@H](O)[C@@H](NC(=O)c4ccccc4)c4ccccc4)C(C)=C1C3(C)C)[C@]1(OC(C)=O)CO[C@@H]1C[C@@H]2O` [Paclitaxel, paclitaxel], for which, in the assay on B16F10 melanoma cell [1], the “growth rate of cancer tissue” value is “slightly slowed”, the “anticancer effect / activity” value is on record as “a little lower inhibiting effect of the growth of B16-F10 melanoma comparing with other anticancer agents” and the “survival rate of mice” value is recorded as “slightly increased”.

As for `O=P1(N(CCCl)CCCl)NCCCO1` (stereo not drawn) [CTX, cyclophosphamide], the “IFN-γ expression of T cell” value in the assay on IFN-γ lay in the range of 2 to 3%. Moreover, in assay [2] (B16F10-bearing mice, FIG. 4a), the “number of cell in lymph node” value was “temporarily been decreased” and the “time after injecting cancer cell at which number of cell in lymph node increased” value is recorded as “around 16 days”. In assay [2] (after recovery of the cell number), the “level of lymph node cell number comparing with mice treated with rat IgG or anti-4-1BB” value was “less than ½ to ⅕”. For the same compound, the “day after which number of CD4 and CD8 T cell was recovered to normal range” value in assay [2] (draining lymph node) is > 14 days. Moreover, the “number of CD4 and CD8 T cell” value in assay [2] (draining lymph node, FIG. 4b, 4c) is reported as “decreased”. In addition, in the assay with B16F10 melanoma cell [3] (treatment at the same time as 4×10^5 B16F10 cells, 100 μg antibody i.p. 6 times per every 5 days, 3 mg CTX i.p. once, FIG. 1), the “growing rate of tumor / growth of cancer” value is given as “potent inhibiting effect on the growth of cancer”. In the assay with B16F10 melanoma cell [3] (treatment at the same time as B16F10 injection), the “day after injecting cancer cells until which tumor size was not increased” value came out at 30 days. Moreover, the “survival of mice extended for” value in the assay on B16F10 melanoma cell [3] (treatment at the same time as B16F10 injection, versus mice injected with only B16F10 (all died around 30th day)) is 20 days. Besides, the anti-cancer activity result in the assay with B16F10 melanoma cell [4] (treatment at 5th day after injecting cancer cell) is listed as “did not show any effect on the anti-cancer activity”. The growth of tumor result in the assay on B16F10 melanoma cell [4] (treatment from 10th day after injecting cancer cells, FIG. 2c) is “did not show any change”. For the same compound, the survival of mice entry in the assay on B16F10 melanoma cell [4] (treatment from 10th day after injecting cancer cells, FIG. 2d) is reported as “did not show any change”.

Turning to `CCc1c2c(nc3ccc(OC(=O)N4CCC(N5CCCCC5)CC4)cc13)-c1cc3c(c(=O)n1C2)COC(=O)[C@]3(O)CC` [Irinotecan, irinotecan], the “time within which most of mice died” value in the assay with B16F10 melanoma cell [1] (2 mg irinotecan i.p. once) is ≤ 30 days. In addition, the “anticancer effect / activity” value in the assay with B16F10 melanoma cell [1] is listed as “strong anticancer effect in a dose dependent manner”.

As to `N.N.[Cl][Pt][Cl]` [cisplatin], in the assay on B16F10 melanoma cell [1], the “growth rate of cancer tissue” value was “decreased in a dose dependent manner” and the “survival rate of mice” value was “partly increased”.
